From patent US20040072725A1, “Remedies/preventives for inflammatory diseases” (AJINOMOTO CO. INC, priority 2001, published 2004)

Assays:
[1] = system: collagen-induced arthritis (CIA) in DBA-1 mice; assay: Murine collagen-induced arthritis (CIA); format: in vivo
Procedure: CIA induction in mice was attained by sensitizing mice with type-II collagen to trigger experimental arthritis (see Courtenay et al., Nature, 283, 666-668, 1980).
An emulsion having an antigen amount of 100 μg/0.1 ml/mouse was intracutaneously injected into the tail root of each mouse. Three weeks after the first sensitization, the same emulsion also having an antigen amount of 100 μg/0.1 ml/mouse was again intracutaneously injected into the tail root of each mouse for boosting (additional) immunization, in the same manner as that for the first sensitization. About 4 days after the additional immunization, the mice were diagnosed as being arthritic, in which reddish edema was observed. […] The level of the edema in the mice was grouped into 4 ranks, and every limb (in four limbs) of each mouse was visually checked. […]
Collagen-induced arthritis (CIA) was induced in mice in the same manner as above, and the mice were tested also in the same manner as above. […] The mice were judged on day 14 after the boosting (additional) immunization.
The test condition was the same as above. As a result, in the control group, four of the five mice developed clinical arthritis in 14 days after the second subcutaneous administration; but in the ornithine-administered group, no mice developed it within 14 days after the second subcutaneous administration.
However, it was 0 in the combined administration group.

[2] = system: SKG mice, model mice with spontaneously-developed chronic rheumatism (rheumatoid arthritis); assay: SKG mice with spontaneously-developed chronic rheumatism; format: in vivo
Excerpt: Regarding the score, 0 indicates no change; 0.1 indicates reddish edema seen in the finger joints of the mice; 0.5 indicates edema seen in the joints of the four limbs thereof; and 1.0 indicates serious edema seen in the joints thereof. For these, the mice were visually checked. The total of the scores of all the four limbs of each mouse is plotted in the graph.
An SKG mouse model is known as the naturally-occurring model. This is found in BALB/c mouse colonies as a mouse that develops clinical arthritis, and it is sustained through sibship mating. Regarding the thus-mated SKG mice, when they are judged at 6-month age, almost all mice have some clinical arthritis (joint edema) in any of four limb joints. The arthritis is not by vertical/horizontal infection with microorganisms but is by autosomal recessive inheritance mutation. The clinical arthritis (joint edema) starts in around 2 months after the birth essentially at the finger joints of the forepaws, and thereafter extends to the joints of the hands and the joints of the legs. After 6 months, most of the mice develop arthrosclerosis (articular rigidity). From the pathohistological viewpoint, the disease starts from synovitis to periarthritis and further toward pannus formation and cartilage/subcartilaginous bone tissue fracture and fibrillation. […] This is an extremely interesting model for studying the mechanism of delayed inflammations. As an engineering model, there is known a transgenic (tg) mouse with a Tax gene of a human T cell leukemia virus-1 (HTLV-1) inserted therein. The tg mouse has the transgene expressing in the local joints, in which inflammatory cytokines such as IL-1α, IL-1β, IL-6, TNF-α, TGF-β, IFN-γ and IL-2, as well as MHC gene are activated. […] The tg mouse is a significant model in studies where the influence of Tax gene that will be probably because of its transactivation on the production of inflammatory cytokines or the influence of viruses on the mechanism of autoimmune reaction, and the like are specifically investigated.
The pharmaceutical potency of the above-mentioned BCAA, mixture of branched amino acids, was investigated on SKG mice, model mice with spontaneously-developed chronic rheumatism (articular rheumatism). In the same manner as in Example 2, BCAA was orally administered to 4-weeks-old (before RA development) or 12-weeks-old (after RA development), male SKG mice. The dose to each mouse was 250 mg/liter.

[3] = system: adjuvant-induced arthritis (AA) in Lewis rats; conditions: 0.03% ornithine oral
Procedure: AA induction in rats was attained in a well-known laboratory method (see Taurog et al., Meth. Enzymolo., 162, 339-355, 1988). Specifically, 50 μ/rat of 1% (w/v) adjuvant was administered to the bottom of the right foot of each rat. One, two and three weeks after the administration, the volume of the edema in the bottom of the right foot of each rat was measured by the use of a device for measuring rats' hind leg (foot) edema.
The dose is the same as in Example 1.
On day 7, 14 and 21 after the adjuvant administration, the rats were checked for edema.

[4] = 0.03% L-ornithine oral from 4 weeks old, mice having turned 20 weeks old

NCCC[C@H](N)C(=O)O [Ornithine, L-ornithine]
Arthritis Score ([1]; L-ornithine 0.006 wt.% aqueous solution, day 14 after boosting immunization): 1.0 | Arthritis Score ([1]; L-ornithine 0.01% alone, oral in drinking water, day 12 after the second subcutaneous administration): 0.8 | mice showing edema in leg joints ([1]; L-ornithine 0.01% single administration, day 12 after the second subcutaneous administration): three of the ten | Arthritis Score ([1]; L-ornithine 0.03 wt.% aqueous solution, day 14 after boosting immunization): 0.6 | dose dependence of effect on CIA (in words) ([1]; L-ornithine 0.15%, 0.03%, 0.006% aqueous solutions): dose-response (dependent) effect of retarding clinical arthritis | Arthritis Score ([1]; L-ornithine 0.15 wt.% aqueous solution, day 14 after boosting immunization): 0.2 | effect of feeding as solid feed on clinical arthritis (in words) ([1]; L-ornithine in solid feed): effective for retarding clinical arthritis | mice that developed clinical arthritis ([1]; L-ornithine in solid feed, within 14 days after the second subcutaneous administration): no mice | effect on CIA (in words) ([1]; ornithine 0.03% oral): significantly retards CIA | Arthritis Score ([1]; ornithine 0.03% oral, day 0 after antigenation): 0 | Arthritis Score ([1]; ornithine 0.03% oral, day 4 after antigenation): 0 | Arthritis Score ([1]; ornithine 0.03% oral, day 6 after antigenation): 0 | Arthritis Score ([1]; ornithine 0.03% oral, day 8 after antigenation): 0 | Arthritis Score ([1]; ornithine 0.03% oral, day 10 after antigenation): 0 | Arthritis Score ([1]; ornithine 0.03% oral, day 12 after antigenation): 0 | Arthritis Score ([1]; ornithine 0.03% oral, day 14 after antigenation): 0 | tested mice showing edema ([1]; ornithine 0.03% oral, up to day 13 after the second subcutaneous administration): none | arthritis (joint) score ([1]; ornithine 0.03% oral, whole observation (control followed up to day 17)): zero | effect on clinical arthritis (joint edema) in SKG mice (in words) ([2]; 0.03% L-ornithine oral): significantly retard the clinical arthritis (joint edema) | arthritis score average ([2]; 0.03% L-ornithine oral from 4 weeks old, male SKG mice having turned 11 weeks old): 0.18 | arthritis (joint) score average [2, 4]: 2.0 | score reduction as compared with the control group [2, 4]: 35% | disease development (in words) ([2]; 0.03% L-ornithine oral started at 8 weeks old, effect lower than with start at 4 weeks old): the disease development was depressed in 2 weeks | dose dependence of effect in SKG mice (in words) ([2]; L-ornithine 0.15%, 0.03%, 0.006% aqueous solutions, FIG. 3): dose-dependent (response) effect of retarding clinical arthritis | effect on clinical arthritis in AA models (in words) [3]: significantly retards clinical arthritis
